Tested on: BJAB cells
Assay: BJAB cell proliferation (Cell Titer Glo)
Assay type: cell-based
Settings: Homo sapiens, read-out: EC50
Method in brief: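 BJAB cells exposed to serially diluted compounds (0.1% DMSO final) for about 72 h at 37 °C. Proliferation read by Cell Titer Glo luminescence as percent of untreated controls; EC50 from non-linear regression of dose-response data.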

SMILES: COCCN(C)C(=O)c1c(-c2cccc(F)c2)c(C)nn1-c1nc(-c2ccc(C(F)(F)F)cc2)c(SC(C)C)s1 [Compound 248, 4-(3-fluorophenyl)-1-(5-(isopropylthio)-4-(4-(trifluoromethyl)phenyl)thiazol-2-yl)-N-(2-methoxyethyl)-N,3-dimethyl-1H-pyrazole-5-carboxamide]
- EC50: > 20 µM

SMILES: Cc1nn(-c2nc(-c3ccc(C(F)(F)F)cc3)c(SC(C)C)s2)c(C(=O)NCCOCCOCCOCCN=[N+]=[N-])c1-c1cccc(F)c1 [Compound 249, N-(2-(2-(2-(2-azidoethoxy)ethoxy)ethoxy)ethyl)-4-(3-fluorophenyl)-1-(5-(isopropylthio)-4-(4-(trifluoromethyl)phenyl)thiazol-2-yl)-3-methyl-1H-pyrazole-5-carboxamide]
- EC50: > 20 µM

SMILES: COCCNC(=O)c1c(-c2cccc(F)c2)c(C)nn1-c1nc(-c2ccc(C(F)(F)F)cc2)c(SC(C)C)s1 [Compound 250, 4-(3-fluorophenyl)-1-(5-(isopropylthio)-4-(4-(trifluoromethyl)phenyl)thiazol-2-yl)-N-(2-methoxyethyl)-3-methyl-1H-pyrazole-5-carboxamide]
- EC50: 10 to 25 µM

SMILES: CCCS(=O)(=O)NC(=O)c1c(-c2cccc(F)c2)c(C)nn1-c1nc(-c2ccc(C(F)(F)F)cc2)c(SC(C)C)s1 [Compound 251, 4-(3-fluorophenyl)-1-(5-(isopropylthio)-4-(4-(trifluoromethyl)phenyl)thiazol-2-yl)-3-methyl-N-(propylsulfonyl)-1H-pyrazole-5-carboxamide]
- EC50: > 20 µM

SMILES: Cc1nn(-c2nc(-c3ccccc3C(F)(F)F)c(SC(C)C)s2)c(C(=O)O)c1-c1cccc(F)c1 [Compound 252, 4-(3-fluorophenyl)-1-(5-(isopropylthio)-4-(2-(trifluoromethyl)phenyl)thiazol-2-yl)-3-methyl-1H-pyrazole-5-carboxylic acid]
- EC50: 10 to 25 µM

SMILES: Cc1nn(-c2nc(-c3cccc(C(F)(F)F)c3)c(SC(C)C)s2)c(C(=O)O)c1-c1cccc(F)c1 [Compound 253, 4-(3-fluorophenyl)-1-(5-(isopropylthio)-4-(3-(trifluoromethyl)phenyl)thiazol-2-yl)-3-methyl-1H-pyrazole-5-carboxylic acid]
- EC50: 5 to 10 µM

SMILES: Cc1nn(-c2nc(-c3ccc(C(F)(F)F)cc3)c(NC(C)C)s2)c(C(=O)O)c1-c1cccc(F)c1 [Compound 254, 4-(3-fluorophenyl)-1-(5-(isopropylamino)-4-(4-(trifluoromethyl)phenyl)thiazol-2-yl)-3-methyl-1H-pyrazole-5-carboxylic acid]
- EC50: 5 to 10 µM

SMILES: Cc1nn(-c2nc(-c3ccc(S(F)(F)(F)(F)F)cc3)c(SC(C)C)s2)c(C(=O)O)c1-c1cccc(F)c1 [Compound 255, 4-(3-fluorophenyl)-1-(5-(isopropylthio)-4-(4-(pentafluoro-λ^6-sulfaneyl)phenyl)thiazol-2-yl)-3-methyl-1H-pyrazole-5-carboxylic acid]
- EC50: < 1 µM

SMILES: CONC(=O)c1c(-c2cccc(F)c2)c(C)nn1-c1nc(-c2ccc(C(F)(F)F)cc2)c(SC(C)C)s1 [Compound 256, 4-(3-fluorophenyl)-1-(5-(isopropylthio)-4-(4-(trifluoromethyl)phenyl)thiazol-2-yl)-N-methoxy-3-methyl-1H-pyrazole-5-carboxamide]
- EC50: 10 to 25 µM

SMILES: Cc1nn(-c2nc(-c3ccc(CC(F)(F)F)cc3)c(SC(C)C)s2)c(C(=O)O)c1-c1cccc(F)c1 [Compound 257, 4-(3-fluorophenyl)-1-(5-(isopropylthio)-4-(4-(2,2,2-trifluoroethyl)phenyl)thiazol-2-yl)-3-methyl-1H-pyrazole-5-carboxylic acid]
- EC50: 1 to 5 µM

SMILES: Cc1nn(-c2nc(-c3ccc(C(F)(F)F)nc3)c(SC(C)C)s2)c(C(=O)O)c1-c1cccc(F)c1 [Compound 258, 4-(3-fluorophenyl)-1-(5-(isopropylthio)-4-(6-(trifluoromethyl)pyridin-3-yl)thiazol-2-yl)-3-methyl-1H-pyrazole-5-carboxylic acid]
- EC50: 1 to 5 µM

SMILES: Cc1nn(-c2nc(-c3cnn(CC(F)(F)F)c3)c(SC(C)C)s2)c(C(=O)O)c1-c1cccc(F)c1 [Compound 259, 4-(3-fluorophenyl)-1-(5-(isopropylthio)-4-(1-(2,2,2-trifluoroethyl)-1H-pyrazol-4-yl)thiazol-2-yl)-3-methyl-1H-pyrazole-5-carboxylic acid]
- EC50: 10 to 25 µM
